From ChEMBL document CHEMBL4028801, “A multifactorial approach to hepatobiliary transporter assessment enables improved therapeutic compound development” (Toxicol Sci, 2013)
Where a name gives a salt, the structure may show the parent alone.

Assays:
[1] = biological target: Bile salt export pump (Homo sapiens, UniProt O95342); assay: Inhibition of human BSEP overexpressed in Sf9 cell membrane vesicles assessed as uptake of [3H]-taurocholate in presence of ATP measured after 15 to 20 mins by membrane vesicle transport assay; format: ADME, cell-based
[2] = biological target: T1, ATP-binding cassette sub-family C member 4 (Homo sapiens, UniProt O15439); assay: Inhibition of human MRP4 overexpressed in Sf9 cell membrane vesicles assessed as uptake of [3H]-estradiol-17beta-D-glucuronide in presence of ATP and GSH measured after 20 mins by membrane vesicle transport assay; format: ADME, cell-based
T1 sequence (O15439 whole entry): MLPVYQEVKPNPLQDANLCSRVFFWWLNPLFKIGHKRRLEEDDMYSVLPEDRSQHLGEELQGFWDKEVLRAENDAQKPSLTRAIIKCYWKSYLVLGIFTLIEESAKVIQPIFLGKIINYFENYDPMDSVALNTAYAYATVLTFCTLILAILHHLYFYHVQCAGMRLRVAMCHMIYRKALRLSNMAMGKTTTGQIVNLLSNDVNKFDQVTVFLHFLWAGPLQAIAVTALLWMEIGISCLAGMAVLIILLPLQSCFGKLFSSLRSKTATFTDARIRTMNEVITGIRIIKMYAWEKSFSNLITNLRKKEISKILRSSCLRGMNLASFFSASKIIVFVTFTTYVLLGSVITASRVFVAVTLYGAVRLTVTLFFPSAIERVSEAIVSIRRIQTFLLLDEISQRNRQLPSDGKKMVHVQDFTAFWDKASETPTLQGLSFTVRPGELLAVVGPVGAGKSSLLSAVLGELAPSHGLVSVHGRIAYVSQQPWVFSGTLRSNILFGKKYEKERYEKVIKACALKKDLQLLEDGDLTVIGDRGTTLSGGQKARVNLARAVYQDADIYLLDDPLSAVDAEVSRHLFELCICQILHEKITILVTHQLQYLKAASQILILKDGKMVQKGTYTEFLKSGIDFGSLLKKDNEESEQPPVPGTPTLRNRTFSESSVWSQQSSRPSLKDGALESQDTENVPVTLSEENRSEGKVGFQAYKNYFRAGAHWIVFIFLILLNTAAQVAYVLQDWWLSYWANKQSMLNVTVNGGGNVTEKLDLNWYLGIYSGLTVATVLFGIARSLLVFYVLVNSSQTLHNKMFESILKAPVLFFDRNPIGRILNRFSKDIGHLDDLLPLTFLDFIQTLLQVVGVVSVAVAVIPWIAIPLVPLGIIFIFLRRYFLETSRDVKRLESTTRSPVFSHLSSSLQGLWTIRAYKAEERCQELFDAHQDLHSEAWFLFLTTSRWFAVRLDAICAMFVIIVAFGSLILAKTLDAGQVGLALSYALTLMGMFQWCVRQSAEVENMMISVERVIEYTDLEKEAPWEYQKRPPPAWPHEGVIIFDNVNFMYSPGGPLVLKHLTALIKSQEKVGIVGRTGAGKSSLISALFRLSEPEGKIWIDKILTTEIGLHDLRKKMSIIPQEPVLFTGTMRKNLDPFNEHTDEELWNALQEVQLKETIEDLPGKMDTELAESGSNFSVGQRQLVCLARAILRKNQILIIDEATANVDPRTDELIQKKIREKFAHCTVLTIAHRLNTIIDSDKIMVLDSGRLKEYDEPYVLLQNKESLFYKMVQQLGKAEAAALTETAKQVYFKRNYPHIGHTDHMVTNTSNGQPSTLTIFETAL

[3] = biological target: ATP-binding cassette sub-family C member 3 (Homo sapiens, UniProt O15438); assay: Inhibition of human MRP3 overexpressed in Sf9 insect cell membrane vesicles assessed as uptake of [3H]-estradiol-17beta-D-glucuronide in presence of ATP and GSH measured after 10 mins by membrane vesicle transport assay; format: ADME, cell-based
[4] = biological target: ATP-binding cassette sub-family C member 2 (Homo sapiens, UniProt Q92887); assay: Inhibition of human MRP2 overexpressed in Sf9 cell membrane vesicles assessed as uptake of [3H]-estradiol-17beta-D-glucuronide in presence of ATP and GSH measured after 20 mins by membrane vesicle transport assay
[5] = Ratio of drug concentration at steady state in human at 20 to 80 mg, po QD after 24 hrs to IC50 for human MRP3 overexpressed in Sf9 insect cells; format: ADME, organism-based; details: in vivo
[6] = AUC in human at 20 to 80 mg, po QD after 24 hrs; format: ADME, organism-based; details: in vivo
[7] = Ratio of drug concentration at steady state in human at 20 to 80 mg, po QD after 24 hrs to IC50 for human BSEP overexpressed in Sf9 insect cells; format: ADME, organism-based; details: in vivo
[8] = Drug concentration at steady state in human at 20 to 80 mg, po QD after 24 hrs; format: ADME, organism-based; details: in vivo, read-out: Css

Sequence of Bile salt export pump (O95342 whole entry): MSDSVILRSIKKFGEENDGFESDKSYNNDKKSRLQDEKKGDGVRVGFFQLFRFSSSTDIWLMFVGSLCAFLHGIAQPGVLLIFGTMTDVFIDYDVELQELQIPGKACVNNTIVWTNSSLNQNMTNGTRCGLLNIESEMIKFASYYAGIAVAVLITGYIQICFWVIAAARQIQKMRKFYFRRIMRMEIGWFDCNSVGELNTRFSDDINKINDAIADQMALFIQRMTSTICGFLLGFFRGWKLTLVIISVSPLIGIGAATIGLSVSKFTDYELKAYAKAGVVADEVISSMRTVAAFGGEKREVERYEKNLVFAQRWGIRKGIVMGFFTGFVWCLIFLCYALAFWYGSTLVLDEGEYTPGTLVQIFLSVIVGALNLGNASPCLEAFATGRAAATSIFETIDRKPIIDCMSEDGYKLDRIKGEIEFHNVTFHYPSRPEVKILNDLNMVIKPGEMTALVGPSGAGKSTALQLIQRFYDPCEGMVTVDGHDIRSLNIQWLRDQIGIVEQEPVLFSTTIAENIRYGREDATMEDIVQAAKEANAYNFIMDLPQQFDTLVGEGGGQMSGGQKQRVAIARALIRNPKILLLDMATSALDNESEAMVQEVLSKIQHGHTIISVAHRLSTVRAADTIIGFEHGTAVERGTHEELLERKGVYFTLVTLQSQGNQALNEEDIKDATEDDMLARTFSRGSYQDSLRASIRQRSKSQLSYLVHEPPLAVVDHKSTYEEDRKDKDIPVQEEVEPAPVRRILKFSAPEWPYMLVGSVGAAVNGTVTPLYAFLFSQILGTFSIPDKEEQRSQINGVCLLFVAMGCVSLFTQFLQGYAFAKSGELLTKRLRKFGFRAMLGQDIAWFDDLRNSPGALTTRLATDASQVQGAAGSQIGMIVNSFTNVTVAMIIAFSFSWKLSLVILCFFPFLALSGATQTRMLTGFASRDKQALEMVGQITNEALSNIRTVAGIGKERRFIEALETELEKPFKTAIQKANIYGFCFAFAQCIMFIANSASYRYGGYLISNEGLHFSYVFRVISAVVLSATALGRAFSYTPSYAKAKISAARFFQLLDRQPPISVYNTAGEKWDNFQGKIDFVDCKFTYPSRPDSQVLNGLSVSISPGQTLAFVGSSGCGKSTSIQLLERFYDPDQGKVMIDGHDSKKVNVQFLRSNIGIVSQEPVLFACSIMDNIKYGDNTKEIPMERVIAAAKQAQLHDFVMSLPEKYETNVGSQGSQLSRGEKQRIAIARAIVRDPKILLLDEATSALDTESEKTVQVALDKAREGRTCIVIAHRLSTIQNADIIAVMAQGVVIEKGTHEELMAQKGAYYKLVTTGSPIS
Sequence of ATP-binding cassette sub-family C member 2 (Q92887 whole entry): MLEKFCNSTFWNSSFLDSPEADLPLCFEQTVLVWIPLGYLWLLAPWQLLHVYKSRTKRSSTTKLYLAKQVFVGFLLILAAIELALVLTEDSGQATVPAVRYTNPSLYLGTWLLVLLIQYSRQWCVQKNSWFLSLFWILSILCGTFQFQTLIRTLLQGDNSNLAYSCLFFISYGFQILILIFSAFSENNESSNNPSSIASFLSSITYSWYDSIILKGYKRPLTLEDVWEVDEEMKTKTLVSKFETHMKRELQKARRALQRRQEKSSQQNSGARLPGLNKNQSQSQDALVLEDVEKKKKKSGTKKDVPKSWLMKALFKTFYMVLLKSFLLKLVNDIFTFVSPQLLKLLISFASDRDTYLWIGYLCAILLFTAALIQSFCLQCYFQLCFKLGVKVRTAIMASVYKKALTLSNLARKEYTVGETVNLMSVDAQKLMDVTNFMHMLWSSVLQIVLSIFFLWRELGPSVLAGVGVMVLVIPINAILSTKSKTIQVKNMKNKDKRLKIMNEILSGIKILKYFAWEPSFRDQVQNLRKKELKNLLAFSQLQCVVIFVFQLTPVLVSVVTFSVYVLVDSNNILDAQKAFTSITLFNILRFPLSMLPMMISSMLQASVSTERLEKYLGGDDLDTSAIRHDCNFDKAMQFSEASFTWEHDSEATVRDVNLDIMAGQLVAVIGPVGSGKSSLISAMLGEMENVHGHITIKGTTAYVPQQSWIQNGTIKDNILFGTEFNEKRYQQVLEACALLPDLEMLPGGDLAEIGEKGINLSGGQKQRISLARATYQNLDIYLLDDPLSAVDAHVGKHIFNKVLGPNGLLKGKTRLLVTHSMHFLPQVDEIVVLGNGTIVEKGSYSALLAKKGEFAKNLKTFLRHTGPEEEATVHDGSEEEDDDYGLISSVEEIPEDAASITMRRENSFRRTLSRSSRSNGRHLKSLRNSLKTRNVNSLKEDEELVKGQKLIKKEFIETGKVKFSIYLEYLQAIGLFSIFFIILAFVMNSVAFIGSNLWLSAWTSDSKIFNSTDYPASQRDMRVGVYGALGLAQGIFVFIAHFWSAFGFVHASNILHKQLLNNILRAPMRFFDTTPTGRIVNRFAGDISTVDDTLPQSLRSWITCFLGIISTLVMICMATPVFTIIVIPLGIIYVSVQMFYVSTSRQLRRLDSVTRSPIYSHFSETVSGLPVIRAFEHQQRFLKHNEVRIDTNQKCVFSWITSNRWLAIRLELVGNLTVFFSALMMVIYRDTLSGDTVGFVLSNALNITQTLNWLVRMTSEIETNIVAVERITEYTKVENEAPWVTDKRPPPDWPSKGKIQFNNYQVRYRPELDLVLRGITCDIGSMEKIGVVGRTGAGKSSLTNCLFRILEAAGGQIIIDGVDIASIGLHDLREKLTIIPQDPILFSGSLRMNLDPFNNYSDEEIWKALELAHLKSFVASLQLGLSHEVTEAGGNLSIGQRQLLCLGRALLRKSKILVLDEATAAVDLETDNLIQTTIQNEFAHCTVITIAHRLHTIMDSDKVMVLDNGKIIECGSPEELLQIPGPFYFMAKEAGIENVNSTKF
Sequence of ATP-binding cassette sub-family C member 3 (O15438 whole entry): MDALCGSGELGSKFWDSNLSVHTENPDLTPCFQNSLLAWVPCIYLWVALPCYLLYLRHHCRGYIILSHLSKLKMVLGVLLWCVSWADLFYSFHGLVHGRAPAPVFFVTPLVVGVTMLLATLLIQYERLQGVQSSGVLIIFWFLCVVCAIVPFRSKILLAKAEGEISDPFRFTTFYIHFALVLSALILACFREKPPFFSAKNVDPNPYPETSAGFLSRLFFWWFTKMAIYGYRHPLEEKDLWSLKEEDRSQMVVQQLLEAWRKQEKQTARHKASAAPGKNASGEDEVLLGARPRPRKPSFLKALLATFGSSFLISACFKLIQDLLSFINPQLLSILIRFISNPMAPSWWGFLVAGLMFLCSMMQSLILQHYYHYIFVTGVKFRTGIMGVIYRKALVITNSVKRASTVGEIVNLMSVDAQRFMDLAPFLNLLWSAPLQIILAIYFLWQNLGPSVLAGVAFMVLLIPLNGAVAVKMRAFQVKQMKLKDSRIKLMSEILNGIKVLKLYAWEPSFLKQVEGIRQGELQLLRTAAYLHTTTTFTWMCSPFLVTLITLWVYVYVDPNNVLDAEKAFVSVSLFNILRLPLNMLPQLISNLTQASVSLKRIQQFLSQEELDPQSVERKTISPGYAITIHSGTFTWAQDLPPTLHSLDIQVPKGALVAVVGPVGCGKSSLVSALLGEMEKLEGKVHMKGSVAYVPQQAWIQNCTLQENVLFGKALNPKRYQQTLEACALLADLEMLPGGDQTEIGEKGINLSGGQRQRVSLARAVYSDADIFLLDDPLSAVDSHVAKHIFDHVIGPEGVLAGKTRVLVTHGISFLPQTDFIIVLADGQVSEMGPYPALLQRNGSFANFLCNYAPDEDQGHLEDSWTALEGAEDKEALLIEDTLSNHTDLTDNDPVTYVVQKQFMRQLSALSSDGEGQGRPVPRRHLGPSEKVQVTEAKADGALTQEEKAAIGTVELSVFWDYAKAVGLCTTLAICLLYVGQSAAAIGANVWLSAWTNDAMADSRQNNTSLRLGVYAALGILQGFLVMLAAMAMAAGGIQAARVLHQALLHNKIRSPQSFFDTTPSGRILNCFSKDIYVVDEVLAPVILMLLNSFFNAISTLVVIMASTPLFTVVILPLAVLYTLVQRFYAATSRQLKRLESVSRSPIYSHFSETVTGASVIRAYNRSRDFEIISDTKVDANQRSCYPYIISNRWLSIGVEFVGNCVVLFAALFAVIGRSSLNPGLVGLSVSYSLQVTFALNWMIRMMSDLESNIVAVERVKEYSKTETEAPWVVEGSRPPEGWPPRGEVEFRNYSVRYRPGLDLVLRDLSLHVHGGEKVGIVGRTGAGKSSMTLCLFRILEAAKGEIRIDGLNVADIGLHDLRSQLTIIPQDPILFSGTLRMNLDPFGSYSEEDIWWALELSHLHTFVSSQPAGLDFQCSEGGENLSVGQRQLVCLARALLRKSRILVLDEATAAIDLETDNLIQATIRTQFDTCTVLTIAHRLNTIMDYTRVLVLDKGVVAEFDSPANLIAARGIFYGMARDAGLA

Compound | IC50 [2] | IC50 [3] | IC50 [4] | IC50 [1] | Ratio [5] | AUC at 24 h [6] | Ratio [7] | concentration at 24 h [8]
CC(=O)O[C@H]1C[C@@H]2CC[C@@H]3[C@H](CC[C@@]4(C)[C@H]3C[C@H]([N+]3(C)CCCCC3)[C@@H]4OC(C)=O)[C@@]2(C)C[C@@H]1[N+]1(C)CCCCC1 [PANCURONIUM BROMIDE] | > 133 µM | > 133 µM | > 133 µM | > 133 µM |  |  |  | 
Nc1nc(=O)[nH]cc1F [FLUCYTOSINE] | > 133 µM | > 133 µM | > 133 µM | > 133 µM |  |  |  | 
CN(CCOc1ccc(NS(C)(=O)=O)cc1)CCc1ccc(NS(C)(=O)=O)cc1 [DOFETILIDE] | > 133 µM | > 133 µM | > 133 µM | > 133 µM |  |  |  | 
NC(=O)c1ncn([C@@H]2O[C@H](CO)[C@@H](O)[C@H]2O)c1O [MIZORIBINE] | > 133 µM | > 133 µM | > 133 µM | > 133 µM |  |  |  | 
CC(C)n1c(/C=C/C(O)CC(O)CC(=O)O)c(-c2ccc(F)cc2)c2ccccc21 (configuration not stated) [FLUVASTATIN] | > 133 µM | 57 µM |  |  | 0.001 | 1490 nM·h | 0.002 | 0.062 µM
c1ccc(C2(c3ccccc3)CC2C2=NCCN2)cc1 (configuration not stated) [CIFENLINE] | > 133 µM | > 133 µM | > 133 µM | > 133 µM |  |  |  | 

Further lines, with some results ahead:

IC50 [2] | IC50 [3] | IC50 [4] | Compound | IC50 [1] | Ratio [5] | AUC at 24 h [6] | Ratio [7] | concentration at 24 h [8]
> 133 µM | > 133 µM | > 133 µM | Nc1nc(N)c2nc(-c3ccccc3)c(N)nc2n1 | > 133 µM |  |  |  | 
> 133 µM | > 133 µM | > 133 µM | O=C1Cc2cc(CCN3CCN(c4nsc5ccccc45)CC3)c(Cl)cc2N1 [ZIPRASIDONE MESYLATE] | > 133 µM |  |  |  | 
2.7 µM | > 133 µM | > 133 µM | O=C(c1ccccc1)c1ccc2n1CCC2C(=O)O (configuration not stated) [KETOROLAC TROMETHAMINE] | > 133 µM |  |  |  | 
> 133 µM | > 133 µM | > 133 µM | CN1CCOC(c2ccccc2)c2ccccc2C1 (configuration not stated) [NEFOPAM] | > 133 µM |  |  |  | 
